According to patent US8158792B2, “Spiropiperidines for use as tryptase inhibitors” (Janssen Pharmaceutica N.V., priority 2007, dated 2012):

Target: human lung tryptase
Test: β-Tryptase In-Vitro Enzyme Assay
Format: biochemical
Conditions: human lung tryptase 1 nM, substrate H-D-HHT-Ala-Arg-pNa 500 μM, pH 7.4, room temperature
Procedure: The β-tryptase assay was conducted with human lung tryptase (Cortex Biochem #CP3033) in an aqueous buffer (10 mM Tris, 10 mM Hepes, 150 mM NaCl, 0.1% PEG 8000, pH 7.4) using the chromogenic substrate H-D-HHT-Ala-Arg-pNa. […] Percent inhibition was calculated by comparing the initial reaction velocity of samples without inhibitor to those with inhibitor. The initial reaction velocities were analyzed using Microsoft Excel.

IC50 [nM] | SMILES
710 | COC(=O)c1ccc(C(=O)N2CCC3(CC2)COc2ccc(CN)cc23)cc1 [Cpd 58, 1-(4-methoxycarbonyl-phenyl)carbonyl-5′-aminomethyl-spiro[piperidine-4,3′-(2H)-benzo[b]furan]]
430 | NCc1ccc2c(c1)C1(CCN(C(=O)c3ccc4ncsc4c3)CC1)CO2 [Cpd 16, 1-benzothiazol-6-ylcarbonyl-5′-aminomethyl-spiro[piperidine-4,3′-(2H)-benzo[b]furan]]
360 | NCc1ccc2c(c1)C1(CCN(C(=O)c3cc4ccccc4[nH]3)CC1)CO2 [Cpd 285, 1-1H-indol-2-ylcarbonyl-5′-aminomethyl-spiro[piperidine-4,3′-(2H)-benzo[b]furan]]
66 | NCc1ccc2c(c1)C1(CCN(C(=O)c3ccc(CSCc4ccccc4)o3)CC1)CO2 [Cpd 147, 1-[5-(benzylthiomethyl)-furan-2-yl]carbonyl-5′-aminomethyl-spiro[piperidine-4,3′-(2H)-benzo[b]furan]]
1400 | NCc1ccc2c(c1)C1(CCN(C(=O)Cc3ccc4ccccc4c3)CC1)CO2 [Cpd 84, 1-naphthalen-2-ylmethylcarbonyl-5′-aminomethyl-spiro[piperidine-4,3′-(2H)-benzo[b]furan]]
24 | NCc1ccc2c(c1)C1(CCN(C(=O)/C=C/c3cccc(OCc4ccccc4)c3)CC1)CO2 [Cpd 281, (E)-1-(3-benzyloxy-phenylethenyl)carbonyl-5′-aminomethyl-spiro[piperidine-4,3′-(2H)-benzo[b]furan]]
54 | NCc1ccc2c(c1)C1(CCN(C(=O)c3cc4c(s3)CCCC4)CC1)CO2 [Cpd 163, 1-(5,6,7-trihydro-4H-benzo[b]thien-2-yl)carbonyl-5′-aminomethyl-spiro[piperidine-4,3′-(2H)-benzo[b]furan]]
140 | NCc1ccc2c(c1)C1(CCN(C(=O)/C=C/c3cccc(Cl)c3)CC1)CO2 [Cpd 164, (E)-1-(3-chloro-phenylethenyl)carbonyl-5′-aminomethyl-spiro[piperidine-4,3′-(2H)-benzo[b]furan]]
17 | CCCSc1sc(C(=O)N2CCC3(CC2)COc2ccc(CN)cc23)c2c1C(=O)CCC2 [Cpd 211, 1-(3-propylthio-4-oxo-5,6,7-trihydro-4H-benzo[c]thien-1-yl)carbonyl-5′-aminomethyl-spiro[piperidine-4,3′-(2H)-benzo[b]furan]]
680 | NCc1ccc2c(c1)C1(CCN(C(=O)Cc3ccc4c(c3)OCO4)CC1)CO2 [Cpd 100, 1-benzodioxol-5-ylmethylcarbonyl-5′-aminomethyl-spiro[piperidine-4,3′-(2H)-benzo[b]furan]]
1600 | NCc1ccc2c(c1)C1(CCN(C(=O)/C=C/c3ccccn3)CC1)CO2 [Cpd 252, (E)-1-(pyridin-2-ylethenyl)carbonyl-5′-aminomethyl-spiro[piperidine-4,3′-(2H)-benzo[b]furan]]
260 | Cc1nc(-c2ccc(C(=O)N3CCC4(CC3)COc3ccc(CN)cc34)s2)cs1 [Cpd 206, 1-[5-(2-methyl-thiazol-4-yl)-thien-2-yl]carbonyl-5′-aminomethyl-spiro[piperidine-4,3′-(2H)-benzo[b]furan]]
780 | CNC(=N)c1ccc2c(c1)C1(CCN(C(=O)c3ccc(C#Cc4ccccc4)o3)CC1)CO2 [Cpd 310, 1-(5-phenylethynyl-furan-2-yl)carbonyl-5′-[methylamino(imino)methyl]-spiro[piperidine-4,3′-(2H)-benzo[b]furan]]
26 | COc1ccc(-c2ccc(C(=O)N3CCC4(CC3)COc3ccc(CN)cc34)o2)cc1 [Cpd 132, 1-[5-(4-methoxy-phenyl)-furan-2-yl]carbonyl-5′-aminomethyl-spiro[piperidine-4,3′-(2H)-benzo[b]furan]]
7500 | NCc1ccc2c(c1)C1(CCN(C(=O)c3ccc(OC(F)(F)F)cc3)CC1)CO2 [Cpd 61, 1-(4-trifluoromethoxy-phenyl)carbonyl-5′-aminomethyl-spiro[piperidine-4,3′-(2H)-benzo[b]furan]]
170 | Cc1nc(-c2ccc(C(F)(F)F)cc2)sc1C(=O)N1CCC2(CC1)COc1ccc(CN)cc12 [Cpd 128, 1-[2-(4-trifluoromethyl-phenyl)-4-methyl-thiazol-5-yl]carbonyl-5′-aminomethyl-spiro[piperidine-4,3′-(2H)-benzo[b]furan]]
1400 | NCc1ccc2c(c1)C1(CCN(C(=O)CCc3ccccc3)CC1)CO2 [Cpd 79, 1-phenethylcarbonyl-5′-aminomethyl-spiro[piperidine-4,3′-(2H)-benzo[b]furan]]
750 | COc1ccc(C(=O)N2CCC3(CC2)COc2ccc(CN)cc23)cc1 [Cpd 54, 1-(4-methoxy-phenyl)carbonyl-5′-aminomethyl-spiro[piperidine-4,3′-(2H)-benzo[b]furan]]
580 | NCc1ccc2c(c1)C1(CCN(C(=O)/C=C/c3ccsc3)CC1)CO2 [Cpd 255, (E)-1-(thien-3-ylethenyl)carbonyl-5′-aminomethyl-spiro[piperidine-4,3′-(2H)-benzo[b]furan]]
6100 | NCc1ccc2c(c1)C1(CCN(C(=O)C3c4ccccc4Oc4ccccc43)CC1)CO2 [Cpd 292, 1-9H-xanthen-9-ylcarbonyl-5′-aminomethyl-spiro[piperidine-4,3′-(2H)-benzo[b]furan]]
550 | Cc1nn(-c2ccc(C(=O)N3CCC4(CC3)COc3ccc(CN)cc34)o2)c(C)c1Cl [Cpd 221, 1-[5-(3,5-dimethyl-4-chloro-pyrazol-1-yl)-furan-2-yl]carbonyl-5′-aminomethyl-spiro[piperidine-4,3′-(2H)-benzo[b]furan]]
820 | NCc1ccc2c(c1)C1(CCN(C(=O)c3ccccc3)CC1)CO2 [Cpd 36, 1-phenylcarbonyl-5′-aminomethyl-spiro[piperidine-4,3′-(2H)-benzo[b]furan]]
4300 | NCc1ccc2c(c1)C1(CCN(C(=O)CCc3cccc(Cl)c3)CC1)CO2 [Cpd 83, 1-(3-chloro-phenethyl)carbonyl-5′-aminomethyl-spiro[piperidine-4,3′-(2H)-benzo[b]furan]]
780 | Cc1ccc(/C=C/C(=O)N2CCC3(CC2)COc2ccc(CN)cc23)cc1 [Cpd 180, (E)-1-(4-methyl-phenylethenyl)carbonyl-5′-aminomethyl-spiro[piperidine-4,3′-(2H)-benzo[b]furan]]
51 | CSc1sc(C(=O)N2CCC3(CC2)COc2ccc(CN)cc23)c(-c2ccc(Cl)cc2)c1C#N [Cpd 202, 1-[3-(4-chloro-phenyl)-4-cyano-5-methylthio-thien-2-yl]carbonyl-5′-aminomethyl-spiro[piperidine-4,3′-(2H)-benzo[b]furan]]
5100 | NCc1ccc2c(c1)C1(CCN(C(=O)NCc3ccccc3)CC1)CO2 [Cpd 263, 1-benzylaminocarbonyl-5′-aminomethyl-spiro[piperidine-4,3′-(2H)-benzo[b]furan]]
30 | COc1cccc(-c2ccc(C(=O)N3CCC4(CC3)COc3ccc(CN)cc34)o2)c1 [Cpd 144, 1-[5-(3-methoxy-phenyl)-furan-2-yl]carbonyl-5′-aminomethyl-spiro[piperidine-4,3′-(2H)-benzo[b]furan]]
17 | Cc1ccc(C)c(OCc2ccc(C(=O)N3CCC4(CC3)COc3ccc(CN)cc34)o2)c1 [Cpd 174, 1-[5-(2,5-dimethyl-phenoxymethyl)-furan-2-yl]carbonyl-5′-aminomethyl-spiro[piperidine-4,3′-(2H)-benzo[b]furan]]
